Assay results: PubChem BioAssay (NCI)
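The compound was tested at five concentrations on cells cultured in 96-well plates, with a 48-hour exposure period. TGI marks complete inhibition of growth.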

Assays:
Test in all cases: NCI-60 cell line screen, 48 h
SK-MEL-2 melanoma = system: SK-MEL-2 melanoma
ACHN renal = system: ACHN renal
SR leukemia = system: SR leukemia
TK-10 renal = system: TK-10 renal
EKVX NSCLC = system: EKVX NSCLC
HOP-92 NSCLC = system: HOP-92 NSCLC
NCI-H226 lung = system: NCI-H226 lung
UO-31 renal = system: UO-31 renal
NCI-H23 lung = system: NCI-H23 lung
M14 melanoma = system: M14 melanoma
COLO 205 colon = system: COLO 205 colon

Structure (SMILES) | TGI (SK-MEL-2 melanoma) [µM] | TGI (ACHN renal) [µM] | TGI (SR leukemia) [µM] | TGI (TK-10 renal) [µM] | TGI (EKVX NSCLC) [µM] | TGI (HOP-92 NSCLC) [µM] | TGI (NCI-H226 lung) [µM] | TGI (UO-31 renal) [µM] | TGI (NCI-H23 lung) [µM] | TGI (M14 melanoma) [µM] | TGI (COLO 205 colon) [µM]
Cc1ccc(C(=O)Cc2nc3ncccc3[nH]c2=O)cc1 | > 100 | 69.3 | > 100 | 57.4 | > 100 | 48.1 | 66.5 | > 100 | 42.3 | > 100 | > 100
O=C(O)CS(=O)c1ccc2c3c(cccc13)C(=O)c1ccccc1-2 (configuration not stated) | > 100 | > 100 | > 100 | > 100 | > 100 | > 100 | > 100 | > 100 | > 100 | > 100 | > 100
COc1cc(CCNC2=CC(=O)c3cccnc3C2=O)ccc1O | 3.46 | 5.61 | 12.2 | 30.5 | 11.5 | 19 | 3.53 | 2.83 | 4.65 | 2.98 | 3
CC(=O)OC(CC(C)C)P1(=O)N(CC(C)(C)C)[C@@H]2CCCC[C@H]2N1CC(C)(C)C (some centres not stated) | 19.6 | 19.3 | 30.4 | 24.7 | 23.5 | 10.7 | 23.2 | 21.2 | 23.1 | 19.8 | 18.2
O=C(O)CCC(C(=O)O)N1C(=O)c2ccccc2C1=O (configuration not stated) | > 100 | > 100 | > 100 | > 100 | > 100 | > 100 | > 100 | > 100 | > 100 | > 100 | > 100
O=C(Nc1ccc(Cl)cc1)c1cccc([N+](=O)[O-])c1O | 12.5 | > 100 | 31.5 | > 44.4 | 14.8 | 4.72 | 7.95 | 6.56 | 6.55 | 32.9 | 10.5
O=C1c2cc([N+](=O)[O-])cnc2S(=O)(=O)N1c1ccc(Br)cc1 | > 100 | > 100 | > 100 | > 100 | > 100 | > 100 | > 100 | > 100 | > 100 | > 100 | > 100
